“And” between values parts separate entries of the source, which are not always exact repeats. Equal values may be shown once. Toxic doses and inconclusive results are not listed.

The subject of this test is BDF1 mice, P388 leukemia ip, median survival T/C. The test is described as follows: NCI In Vivo Anticancer Drug Screen. Data for tumor model P388 Leukemia (intraperitoneal) in B6D2F1 (BDF1) mice. Conditions: endpoint: median survival time, higher = longer survival. A digest of the protocol: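 Transplantable tumour in mice; compound vs vehicle dosing; survival scored; ratio of treated to control reported.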

[1] abbreviates: dose: 100.0 mg/kg/injection, schedule: Q04DX003 (ip), vehicle: saline.
Where [2] appears, read: dose: 200.0 mg/kg/injection, schedule: Q04DX003 (ip), vehicle: Klucel (hydroxypropylcellulose) (HPC).

Take `COc1cc2cc(c1Cl)N(C)C(=O)C[C@H](OC(=O)[C@H](C)N(C)C(C)=O)[C@]1(C)O[C@H]1[C@H](C)[C@@H]1C[C@@](O)(NC(=O)O1)[C@H](OC)C=C/C=C(\C)C2`: the T/C is, setting by setting: (dose: 1.6 micrograms/kg/injection, schedule: Q01DX009 (ip), vehicle: saline) 155 % of control; (dose: 2.0 micrograms/kg/injection, schedule: Q08DX002 (ip), vehicle: saline) 104 % of control; (dose: 3.1 micrograms/kg/injection, schedule: Q01DX009 (ip), vehicle: saline) 165 % of control; (dose: 4.0 micrograms/kg/injection, schedule: Q08DX002 (ip), vehicle: saline) 111 % of control and 117 % of control; (dose: 6.2 micrograms/kg/injection, schedule: Q01DX009 (ip), vehicle: saline) 195 % of control; (dose: 8.0 micrograms/kg/injection, schedule: Q08DX002 (ip), vehicle: saline) 122 % of control and 123 % of control. For the same molecule, the T/C is 194 % of control (dose: 10.0 micrograms/kg/injection, schedule: Q03HX024 (ip), vehicle: saline); 190 % of control (dose: 12.5 micrograms/kg/injection, schedule: Q01DX009 (ip), vehicle: saline); 238 % of control (dose: 15.0 micrograms/kg/injection, schedule: Q03HX024 (ip), vehicle: saline); 176 % of control (dose: 20.0 micrograms/kg/injection, schedule: Q03HX024 (ip), vehicle: saline); 220 % of control (dose: 25.0 micrograms/kg/injection, schedule: Q01DX009 (ip), vehicle: saline); 188 % of control (dose: 25.0 micrograms/kg/injection, schedule: Q03HX024 (ip), vehicle: saline). Besides, the T/C by setting is: (dose: 30.0 micrograms/kg/injection, schedule: Q03HX024 (ip), vehicle: saline) 527 % of control; (dose: 32.0 micrograms/kg/injection, schedule: Q08DX002 (ip), vehicle: clinical formulation) 191 % of control; (dose: 35.0 micrograms/kg/injection, schedule: Q03HX024 (ip), vehicle: saline) 194 % of control; (dose: 40.0 micrograms/kg/injection, schedule: Q03HX024 (ip), vehicle: saline) 188 % of control; (dose: 50.0 micrograms/kg/injection, schedule: Q04DX003 (ip), vehicle: clinical formulation) 203 % of control; (dose: 54.0 micrograms/kg/injection, schedule: Q04DX003 (ip), vehicle: clinical formulation) 192 % of control. The T/C by setting is: (dose: 64.0 micrograms/kg/injection, schedule: Q08DX002 (ip), vehicle: clinical formulation) 155 % of control and 169 % of control; (dose: 64.0 micrograms/kg/injection, schedule: Q08DX002 (ip), vehicle: saline) 163 % of control; (dose: 90.0 micrograms/kg/injection, schedule: Q04DX003 (ip), vehicle: clinical formulation) 200 % of control; (dose: 100.0 micrograms/kg/injection, schedule: Q04DX003 (ip), vehicle: clinical formulation) 183 % of control; (dose: 108.0 micrograms/kg/injection, schedule: Q04DX003 (ip), vehicle: saline) 172 % of control; (dose: 128.0 micrograms/kg/injection, schedule: Q08DX002 (ip), vehicle: clinical formulation) 167 % of control and 182 % of control. Further, the T/C was 183 % of control and 193 % of control (dose: 128.0 micrograms/kg/injection, schedule: Q08DX002 (ip), vehicle: saline); 224 % of control (dose: 150.0 micrograms/kg/injection, schedule: Q04DX003 (ip), vehicle: clinical formulation); 159 % of control (dose: 180.0 micrograms/kg/injection, schedule: Q04DX003 (ip), vehicle: saline); 194 % of control (dose: 200.0 micrograms/kg/injection, schedule: Q04DX003 (ip), vehicle: clinical formulation); 224 % of control (dose: 250.0 micrograms/kg/injection, schedule: Q04DX003 (ip), vehicle: clinical formulation); 197 % of control and 204 % of control (dose: 256.0 micrograms/kg/injection, schedule: Q08DX002 (ip), vehicle: clinical formulation). Besides, the T/C is, setting by setting: (dose: 256.0 micrograms/kg/injection, schedule: Q08DX002 (ip), vehicle: saline) 203 % of control and 219 % of control; (dose: 300.0 micrograms/kg/injection, schedule: Q04DX003 (ip), vehicle: saline) 180 % of control; (dose: 512.0 micrograms/kg/injection, schedule: Q08DX002 (ip), vehicle: clinical formulation) 227 % of control; (dose: 512.0 micrograms/kg/injection, schedule: Q08DX002 (ip), vehicle: saline) 272 % of control and 219 % of control; (dose: 1024.0 micrograms/kg/injection, schedule: Q08DX002 (ip), vehicle: clinical formulation) 242 % of control; (dose: 1024.0 micrograms/kg/injection, schedule: Q08DX002 (ip), vehicle: saline) 88 % of control and 117 % of control.
Take `C=CCNc1ncnc2c1cnn2C`: the T/C (dose: 25.0 mg/kg/injection, schedule: Q01DX009 (ip), vehicle: saline) is 95 % of control and 104 % of control; the T/C (dose: 50.0 mg/kg/injection, schedule: Q01DX009 (ip), vehicle: saline) was 109 % of control; the T/C (dose: 50.0 mg/kg/injection, schedule: Q04DX003 (ip), vehicle: saline) is 118 % of control; the T/C (dose: 100.0 mg/kg/injection, schedule: Q01DX009 (ip), vehicle: saline) was 104 % of control; the T/C under setting [1] is 109 % of control; the T/C (dose: 200.0 mg/kg/injection, schedule: Q04DX003 (ip), vehicle: saline) was 90 % of control.
Consider `O=C(CC(=O)C(F)(F)F)c1ccc(-c2ccccc2)cc1`, for which the T/C is 110 % of control (dose: 50.0 mg/kg/injection, schedule: Q01DX009 (ip), vehicle: saline with Tween-80) and 122 % of control (dose: 100.0 mg/kg/injection, schedule: Q01DX009 (ip), vehicle: saline with Tween-80).
As to `Nc1nc(SN=Nc2ccc(S(=O)(=O)O)cc2)c2[nH]cnc2n1`, the T/C was 113 % of control (dose: 4.0 mg/kg/injection, schedule: Q01DX009 (ip), vehicle: Klucel (hydroxypropylcellulose) (HPC)); 121 % of control (dose: 9.0 mg/kg/injection, schedule: Q01DX009 (ip), vehicle: Klucel (hydroxypropylcellulose) (HPC)); 108 % of control (dose: 20.0 mg/kg/injection, schedule: Q04DX003 (ip), vehicle: Klucel (hydroxypropylcellulose) (HPC)); 120 % of control (dose: 30.0 mg/kg/injection, schedule: Q04DX003 (ip), vehicle: Klucel (hydroxypropylcellulose) (HPC)); 112 % of control (dose: 45.0 mg/kg/injection, schedule: Q04DX003 (ip), vehicle: Klucel (hydroxypropylcellulose) (HPC)); 122 % of control (dose: 66.0 mg/kg/injection, schedule: Q04DX003 (ip), vehicle: saline). For the same molecule, the T/C was 118 % of control under setting [1]; 115 % of control (dose: 150.0 mg/kg/injection, schedule: Q04DX003 (ip), vehicle: Klucel (hydroxypropylcellulose) (HPC)); 113 % of control (dose: 150.0 mg/kg/injection, schedule: Q04DX003 (ip), vehicle: saline); 116 % of control under setting [2].
`O=C([O][Hg][CH2]C1COC([CH2][Hg][O]C(=O)c2ccccc2)CO1)c1ccccc1` (configuration not stated): the T/C (dose: 100.0 mg/kg/injection, schedule: Q04DX003 (ip), vehicle: saline with Tween-80) was 113 % of control.
As for `CSP12(OCCO1)OCCO2`, the T/C is, setting by setting: (dose: 50.0 mg/kg/injection, schedule: Q01DX005 (ip), vehicle: saline) 94 % of control; (dose: 100.0 mg/kg/injection, schedule: Q01DX005 (ip), vehicle: saline) 94 % of control; (dose: 200.0 mg/kg/injection, schedule: Q01DX005 (ip), vehicle: saline) 91 % of control.
Regarding `CCCCCCCCCCCCCC(=O)CC`, the T/C (dose: 85.0 mg/kg/injection, schedule: Q04DX003 (ip), vehicle: saline with Tween-80) is 91 % of control; the T/C (dose: 135.0 mg/kg/injection, schedule: Q04DX003 (ip), vehicle: saline with Tween-80) is 91 % of control; the T/C (dose: 200.0 mg/kg/injection, schedule: Q04DX003 (ip), vehicle: saline with Tween-80) is 87 % of control.
As to `CCCCCCCCCCCCCCCCCCCC/C=C/C1CC(=O)OC1=O` (configuration not stated), the T/C is 95 % of control (dose: 75.0 mg/kg/injection, schedule: Q01DX009 (ip), vehicle: Klucel (hydroxypropylcellulose) (HPC)); 100 % of control (dose: 100.0 mg/kg/injection, schedule: Q04DX003 (ip), vehicle: Klucel (hydroxypropylcellulose) (HPC)); 95 % of control (dose: 150.0 mg/kg/injection, schedule: Q01DX009 (ip), vehicle: Klucel (hydroxypropylcellulose) (HPC)); 87 % of control under setting [2]; 86 % of control (dose: 300.0 mg/kg/injection, schedule: Q01DX009 (ip), vehicle: Klucel (hydroxypropylcellulose) (HPC)); 87 % of control (dose: 400.0 mg/kg/injection, schedule: Q04DX003 (ip), vehicle: Klucel (hydroxypropylcellulose) (HPC)).

The record behind these values is PubChem BioAssay AID328 (DTP/NCI, 2004).
